Laboratory results taken from publication PMC4297288, “Metal-assisted synthesis of unsymmetrical magnolol and honokiol analogs and their biological assessment as GABAA receptor ligands” (Bioorganic & Medicinal Chemistry Letters, 2015).
Like-named read-outs stand apart in the source and are kept apart here.

Columns and labels:
Format in all cases: cell-based
[1] = target: T1, α1β2γ2 GABAA receptor (β2 subunit) (Rattus norvegicus, UniProt P63138); assay: two-electrode voltage clamp, % IGABA at […] compound, GABA EC0.[…]
T1 construct: gene Gabrb2; recombinant α1β2γ2 receptor expressed in Xenopus laevis oocytes; with GABAA α1 (Gabra1) and γ2 (Gabrg2) subunits
T1 sequence (P63138 26-474): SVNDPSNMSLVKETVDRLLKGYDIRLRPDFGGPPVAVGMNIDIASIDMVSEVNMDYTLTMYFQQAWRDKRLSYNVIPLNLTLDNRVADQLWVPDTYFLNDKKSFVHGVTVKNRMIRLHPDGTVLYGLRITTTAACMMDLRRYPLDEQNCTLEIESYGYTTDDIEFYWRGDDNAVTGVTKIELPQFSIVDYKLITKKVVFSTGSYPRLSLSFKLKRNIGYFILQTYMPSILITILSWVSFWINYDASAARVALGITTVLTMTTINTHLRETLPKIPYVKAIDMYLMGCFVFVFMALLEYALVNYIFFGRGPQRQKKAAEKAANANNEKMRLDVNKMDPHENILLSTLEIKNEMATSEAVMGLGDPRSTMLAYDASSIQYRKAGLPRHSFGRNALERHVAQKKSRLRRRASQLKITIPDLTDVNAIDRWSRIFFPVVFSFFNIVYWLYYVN
T1 sequence (P62813 28-455 partner): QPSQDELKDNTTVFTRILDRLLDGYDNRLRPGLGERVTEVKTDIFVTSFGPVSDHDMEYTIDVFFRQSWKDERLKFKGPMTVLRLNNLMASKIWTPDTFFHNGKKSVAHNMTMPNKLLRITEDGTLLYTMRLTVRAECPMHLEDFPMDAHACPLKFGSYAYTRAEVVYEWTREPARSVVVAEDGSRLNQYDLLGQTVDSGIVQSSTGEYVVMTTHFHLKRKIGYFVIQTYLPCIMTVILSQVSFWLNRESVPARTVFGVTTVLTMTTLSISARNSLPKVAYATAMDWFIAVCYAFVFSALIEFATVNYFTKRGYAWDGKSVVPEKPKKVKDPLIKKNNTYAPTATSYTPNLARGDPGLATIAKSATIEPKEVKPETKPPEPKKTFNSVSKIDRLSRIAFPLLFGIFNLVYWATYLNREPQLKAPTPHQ
T1 sequence (P18508 39-466 partner): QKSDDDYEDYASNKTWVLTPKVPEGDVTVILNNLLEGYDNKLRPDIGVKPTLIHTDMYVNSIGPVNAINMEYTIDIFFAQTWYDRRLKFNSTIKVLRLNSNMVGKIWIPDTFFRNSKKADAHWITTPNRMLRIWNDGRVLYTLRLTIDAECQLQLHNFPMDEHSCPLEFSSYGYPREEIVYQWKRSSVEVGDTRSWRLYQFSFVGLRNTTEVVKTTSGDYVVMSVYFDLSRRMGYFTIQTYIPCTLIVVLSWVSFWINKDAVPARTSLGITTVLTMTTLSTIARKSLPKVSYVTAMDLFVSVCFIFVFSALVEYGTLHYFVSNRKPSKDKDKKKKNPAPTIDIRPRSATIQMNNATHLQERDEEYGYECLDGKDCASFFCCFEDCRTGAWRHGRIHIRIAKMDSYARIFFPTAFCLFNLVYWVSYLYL

[2] = target: T1, α1β2γ2 GABAA receptor (β2 subunit); assay: two-electrode voltage clamp, potentiation of IGABA at GABA EC10-20
[3] = target: T2, α1β1γ2 GABAA receptor (β1 subunit) (Rattus norvegicus, UniProt P15431); assay: as above
T2 construct: gene Gabrb1; recombinant α1β1γ2 receptor expressed in Xenopus laevis oocytes; with GABAA α1 (Gabra1) and γ2 (Gabrg2) subunits
T2 sequence (P15431 26-474): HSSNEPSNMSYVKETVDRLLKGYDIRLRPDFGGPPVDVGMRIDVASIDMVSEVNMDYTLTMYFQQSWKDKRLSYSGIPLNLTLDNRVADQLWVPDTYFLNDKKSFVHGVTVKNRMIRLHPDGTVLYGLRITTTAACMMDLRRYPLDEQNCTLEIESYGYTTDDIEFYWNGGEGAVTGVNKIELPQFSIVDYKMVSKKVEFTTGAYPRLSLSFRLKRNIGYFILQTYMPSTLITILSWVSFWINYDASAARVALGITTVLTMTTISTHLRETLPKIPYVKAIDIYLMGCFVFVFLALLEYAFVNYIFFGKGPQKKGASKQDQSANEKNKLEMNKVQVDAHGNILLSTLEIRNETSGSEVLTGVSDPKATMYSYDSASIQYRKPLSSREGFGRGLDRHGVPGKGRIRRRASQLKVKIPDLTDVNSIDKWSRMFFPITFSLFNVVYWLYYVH
T2 sequence (P62813 28-455 partner): as the sequence (P62813 28-455 partner) above
T2 sequence (P18508 39-466 partner): as the sequence (P18508 39-466 partner) above

SMILES	activation at 3 µM [1] [%]	other results
C=CCc1ccc(O)c(-c2ccccc2C)c1 [8b]	207 ± 33	–
C=CCc1ccc(O)c(-c2cccc(OC)c2)c1 [8f]	136 ± 32	–
C=CCc1ccc(O)c(-c2ccc(OC)cc2)c1 [8g]	–	EC50 ([2]; read-out: EC50): ~7 µM; EC50 ([3]; read-out: EC50): 30 µM
C=CCc1ccc(O)c(-c2cccc(C(=O)OC)c2)c1 [8i]	406 ± 70	–
C=CCc1ccc(O)c(-c2cc(CC=C)ccc2O)c1 [compound 1, magnolol]	338 ± 93	–
C=CCc1ccc(O)c(-c2ccc(O)c(CC=C)c2)c1 [compound 2, honokiol]	–	EC50 [2]: 20 µM; EC50 [3]: 20 µM
